For nine compounds, viability, T/C and IC50 results are on record in PubChem BioAssay AID1918939 (Molecular Pharmacology Branch, DTP, NCI, 2023).

The test system of this assay is 653999-131-R-J2-PDC complex spheroid viability. Briefly: Anticancer human tumor 653999-131-R-J2-PDC patient-derived lung adenocarcinoma cell line growth inhibition. The following applies: for viability, T/C: stronger effect = lower value; for IC50: curve of compound. The text has this: Multicellular complex tumor spheroid response to LSD1 Inhibitor Iadademstat in combination with a variety of drugs and investigational agents in selected tumor cell lines
The current study was undertaken to assess response to LSD1 inhibitors in combination with standard-of-care drugs and investigational agents in solid tumor complex spheroid models as well as in the K-562 leukemia. Complex spheroids include a stromal component modeled by human endothelial cells (HUVEC) and fibroblasts modeled by human mesenchymal stem cells (MSCs). The concentration ranges selected for each drug and investigational agent were based upon clinically achievable concentrations if the clinical Cmax of the agent was known.
Compounds. The drugs and investigational agents used in this study are listed on Table 1. All of the agents used, including staurosporine (NSC755774) and gemcitabine (NSC613327), were obtained from the Developmental Therapeutics Program, NCI. FDA-approved anticancer drugs are available from the NCI at http://dtp.nci.nih.gov/branches/dscb/oncology_drugset_explanation.html. Drugs and investigational agents were >95% pure by proton nuclear magnetic resonance (NMR) and liquid chromatography/mass spectrometry (LC/MS). Stock solutions were prepared at 400x in DMSO, stored at -70 degrees C, and diluted in fresh medium prior to their use. The final concentration of DMSO in cell culture wells never exceeded 0.25% (v/v). The FDA-approved anticancer drug set is available from the Developmental Therapeutics Program at https://dtp.cancer.gov/organization/dscb/obtaining/available_plates.htm. All drugs and investigational agents were tested over a range starting from a high concentration at or near the clinical Cmax and decreasing in half-log increments. If the clinical Cmax for an agent had not been determined, the highest concentration tested was 10 microM.
Cell Lines. The patient-derived cancer cell (PDC) lines: 292921-168-R-J2-PDC, K24384-001-R-PDC, and 521955-158-R2-J5-PDC pancreatic carcinomas, 556581-035-R-J1 ovarian carcinoma, 324938-238-R-J1-PDC, 855422-203-R-J1-PDC and 883617-216-R-J1-PDC urothelial bladder carcinomas, 743489-274-T-PDC renal cell carcinoma, 138582-R-J1 Merkel cell tumor, K60290-347-R-J1 and K57222-313-R-J1-PDC glioblastomas, 653999-131-R-J2-PDC, LG0703-F948-PDC, and 349418-098-R-PDC non-small cell lung carcinomas, 885512-296-R-J2-PDC, 171881-019-R-J1-PDC breast carcinomas and 186277-243-T-J2-PDC and 233499-124-R-J2-PDC colon carcinomas were obtained from the NCI Patient-Derived Models Repository (PDMR, https://pdmr.cancer.gov). The established cell lines NCI/ADR-RES (RRID:CVCL_14520 and OVCAR-5 (RRID:CVCL_1628) ovarian carcinomas, 786-O (RRID:CVCL_1051) and A498 (RRID:CVCL_A498) renal cell carcinoma, NCI-H211 (ATCC, cat. CRL-5824; RRID:CVCL_1529), NCI-H196 (ATCC, cat. CRL-5823, RRID:CVCL_1509), SW 1271 (ATCC, cat. CRL-2177, RRID:CVCL_1716) and NCI-H1876 (ATCC, cat. CRL-5902, RRID:CVCL_1503) small cell lung carcinomas, MDA-MB-231 (RRID:CVCL_0062) and MDA-MB-468 (RRID:CVCL_0419)breast carcinomas (10-12). Pooled donor human umbilical vein endothelial cells (HUVEC, Lonza, cat. CC-2519) and human mesenchymal stem cells (hMSC, Lonza, cat. PT-2501) were purchased from Lonza (Walkersville, MD).
Cell Culture. All cells were maintained in an incubator at 37 degrees C and 5% CO2 with 95% humidity. The PDC lines were cultured according to standard operating procedures established by the NCI PDMR (https://pdmr.cancer.gov). Briefly all PDCs were thawed and cultured in Matrigel-coated flasks prepared with a working solution of 1X Ham's F-12 nutrient mix, without supplementation (Invitrogen, Waltham, MA, cat. 11765054), 100 U/mL penicillin-streptomycin (Invitrogen, cat. 15140122), and 2.5% Matrigel (Corning Inc., Corning, NY, cat. 354248) for the first three passages. […]

The structures appear in SMILES notation. Values joined by “and” are separate entries in the source; they are usually repeats but may differ in a detail not shown here. Identical values can stand only once.
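Also: spheroids exposed to agents for seven days before readout.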

With `CC(C)CC(NC(=O)C(Cc1ccccc1)NC(=O)c1cnccn1)B(O)O` (stereo not drawn), the 50% inhibitory concentration (IC50) was 2.17 nM and 0.852 nM. Besides, under “compound 0.000316 µM”, the viability, T/C is 114% and 119%. Further, the viability, T/C (compound 0.001 µM) was 103% and 38.1%. Moreover, under “compound 0.00316 µM”, the viability, T/C was 23.9% and 13.2%. For the same compound, under “compound 0.01 µM”, the viability, T/C was 1.83% and 5.29%. Moreover, the viability, T/C (compound 0.0316 µM) was 2.67% and 1.3%. For the same compound, the viability, T/C (compound 0.1 µM) is 0.76% and 1.16%.

For the compound `CC(C)CC(NC(=O)CNC(=O)c1cc(Cl)ccc1Cl)B1OC(=O)CC(CC(=O)O)(C(=O)O)O1` (stereo not drawn), the IC50 was 13.4 nM and 19.9 nM. Also, the viability, T/C (compound 0.000316 µM) was 101% and 110%. Also, the viability, T/C (compound 0.001 µM) was 108% and 115%. In addition, where the note is “compound 0.00316 µM”, the viability, T/C is 92.6% and 107%. Besides, the viability, T/C (compound 0.01 µM) was 56.9% and 74.5%. The viability, T/C (compound 0.0316 µM) was 25.3% and 34.1%. Moreover, the viability, T/C (compound 0.1 µM) was 5.14% and 18.5%.

Turning to `CC1(C)CCC(CN2CCN(c3ccc(C(=O)NS(=O)(=O)c4ccc(NCC5CCOCC5)c([N+](=O)[O-])c4)c(Oc4cnc5[nH]ccc5c4)c3)CC2)=C(c2ccc(Cl)cc2)C1`, the IC50 was > 10000 nM and 6320 nM. Moreover, under “compound 0.0316 µM”, the viability, T/C is 92.8% and 101%. Also, the viability, T/C (compound 0.1 µM) was 106% and 102%. Further, for the setting “compound 0.316 µM”, the viability, T/C was 97% and 104%. Besides, under “compound 1 µM”, the viability, T/C is 83.8% and 97.2%. The viability, T/C (compound 3.16 µM) was 92.2% and 85.6%. Moreover, the viability, T/C (compound 10 µM) was 60.5% and 26.7%.

`CC1COCCN1c1cc(-c2ccnn2C)c2ccnc(-c3ccn[nH]3)c2n1` (stereo not drawn): the IC50 was 18.8 nM and 18.2 nM. Where the note is “compound 0.00316 µM”, the viability, T/C was 81.7% and 58.4%. The viability, T/C (compound 0.01 µM) was 66.4% and 56.5%. The viability, T/C (compound 0.0316 µM) is 36.3% and 41.4%. For the same compound, under “compound 0.1 µM”, the viability, T/C was 31.9% and 35.9%. In addition, the viability, T/C (compound 0.316 µM) was 29.8% and 45.5%. Further, the viability, T/C (compound 1 µM) is 30.5% and 53.4%.

In the case of `CCN(c1cc(-c2ccc(CN3CCOCC3)cc2)cc(C(=O)NCc2c(C)cc(C)[nH]c2=O)c1C)C1CCOCC1`, the IC50 was > 3000 nM. Moreover, for the setting “compound 0.00949 µM”, the viability, T/C was 91.4% and 104%. In addition, the viability, T/C (compound 0.03 µM) was 96.6% and 104%. For the same compound, the viability, T/C (compound 0.0949 µM) is 103%. Further, the viability, T/C (compound 0.3 µM) is 97.3% and 101%. Further, under “compound 0.949 µM”, the viability, T/C was 91.9% and 89.5%. The viability, T/C (compound 3 µM) is 92.6% and 92%.

For the compound `CC[C@@]1(O)C(=O)OCc2c1cc1n(c2=O)Cc2cc3c(CN(C)C)c(O)ccc3nc2-1`, the IC50 was 7.34 nM and 15.4 nM. In addition, the viability, T/C (compound 0.000316 µM) is 108% and 99%. Also, where the note is “compound 0.001 µM”, the viability, T/C was 88.5% and 100%. Besides, the viability, T/C (compound 0.00316 µM) was 66% and 83.8%. Further, the viability, T/C (compound 0.01 µM) was 41.8% and 55.4%. Also, the viability, T/C (compound 0.0316 µM) is 34.3% and 41.5%. The viability, T/C (compound 0.1 µM) is 22.4% and 29.9%.

As for `CCc1c2c(nc3ccc(O)cc13)-c1cc3c(c(=O)n1C2)COC(=O)[C@]3(O)CC`, the IC50 was < 0.949 nM. Moreover, the viability, T/C (compound 0.000949 µM) was 25.8% and 33.6%. The viability, T/C (compound 0.003 µM) is 18.4% and 20.9%. For the same compound, under “compound 0.00949 µM”, the viability, T/C was 11.9% and 12.5%. The viability, T/C (compound 0.03 µM) is 7.76% and 6.48%. Moreover, the viability, T/C (compound 0.0949 µM) was 5.86% and 7.35%. In addition, where the note is “compound 0.3 µM”, the viability, T/C was 5.31% and 11.3%.

In the case of `COc1cc(C2c3cc4c(cc3C(OC3OC5COC(C)OC5C(O)C3O)C3COC(=O)C23)OCO4)cc(OC)c1O` (stereo not drawn), the IC50 was 230 nM and 199 nM. Moreover, the viability, T/C (compound 0.00949 µM) is 80.5% and 89.5%. The viability, T/C (compound 0.03 µM) is 76.5% and 74.9%. Moreover, the viability, T/C (compound 0.0949 µM) is 64.3% and 57.3%. Moreover, the viability, T/C (compound 0.3 µM) was 42.8% and 45.1%. Further, the viability, T/C (compound 0.949 µM) is 37.4% and 36.7%. Moreover, the viability, T/C (compound 3 µM) was 25.3% and 27.8%.

With `COc1cc(Nc2ncc3c(n2)-c2ccc(Cl)cc2C(c2c(F)cccc2OC)=NC3)ccc1C(=O)O`, the IC50 was > 1000 nM. Further, the viability, T/C (compound 0.00316 µM) was 96.9% and 78.1%. In addition, under “compound 0.01 µM”, the viability, T/C was 90.6% and 74%. For the same compound, the viability, T/C (compound 0.0316 µM) was 68.8% and 68.2%. Moreover, the viability, T/C (compound 0.1 µM) is 70% and 73.6%. Besides, the viability, T/C (compound 0.316 µM) is 73.4% and 78%. Further, for the setting “compound 1 µM”, the viability, T/C was 68.2% and 64.2%.

By viability, T/C is commonly meant the ratio of treated to control. By IC50 is commonly meant the concentration that gives 50% inhibition.
